Experiment [1] deals with distress vocalisations in guinea-pig pups. Briefly: Separation-induced vocalisation assay. The format is in vivo, guinea-pigs. The conditions noted are these: p.o. The source says: Separation-Induced Vocalisation Assay Male and female guinea-pigs pups are housed in family groups with their mothers and littermates throughout the study. Experiments are commenced […] when the pups are 2 weeks old. Before entering an experiment, the pups are screened to ensure that a vigorous vocalisation response is reproducibly elicited following maternal separation. The pups are placed individually in an observation cage (55 cm×39 cm×19 cm) in a room physically isolated from the home cage for 15 minutes and the duration of vocalisation during this baseline period is recorded. Only animals which vocalise for longer than 5 minutes are employed for drug challenge studies (approximately 50% of available pups may fail to reach this criterion). On test days each pup receives an oral dose or a s.c. or i.p. injection of test compound or vehicle and is then immediately returned to the home cage with its mother and siblings for 30 minutes to 60 minutes (or for up to 4 hours following an oral dose, dependant upon the oral pharmacokinetics of the test compound) before social isolation for 15 minutes as described above. The duration of vocalisation on drug treatment days is expressed as a percentage of the pre-treatment baseline value for each animal. The same subjects are retested once weekly for up to 6 weeks. Between 6 and 8 animals receive each test compound at each dose tested. […]

For experiment [2], the system named is foot tapping in gerbils induced by central injection of an NK1 agonist. The experiment can be described thus: Gerbil foot-tapping assay. The settings on record: i.v. The format is in vivo, Mongolian gerbils. The source says: Gerbil Foot-Tapping Assay CNS penetrant NK-1 receptor antagonists for use in the present invention can be identified by their ability to inhibit foot tapping in gerbils induced by anxiogenic agents (such as pentagastrin) or central infusion of NK-1 receptor agonists such as GR73632, or caused by aversive stimulation such as foot shock or single housing, based on the method of Rupniak & Williams, Eur. J. Pharmacol., 1994, 265, 179. Male or female Mongolian gerbils (35-70 g) are anaesthetised by inhalation of an isoflurane/oxygen mixture to permit exposure of the jugular vein in order to permit administration of test compounds or vehicle in an injection volume of 5 ml/kg i.v. Alternatively, test compounds may be administered orally or by subcutaneous or intraperitoneal routes. The wound is closed and a second skin incision is made in the midline of the scalp to expose the skull. […] The duration and/or intensity of hind foot tapping is then recorded continuously for 5 minutes. Alternatively, the ability of test compounds to inhibit foot tapping evoked by aversive stimulation, such as foot shock or single housing, may be studied using a similar method of quantification.

Experiment [3] deals with cisplatin-induced emesis in ferrets. Briefly: Ferret emesis assay. The class given is in vivo. The settings on record: p.o. The protocol:
Ferret Emesis Assay Individually housed male ferrets (1.0-2.5 kg) are dosed orally by gavage with test compound. Ten minutes later they are fed with approximately 100 g of tinned cat food. At 60 minutes following oral dosing, cisplatin (10 mg(kg) is given i.v. via a jugular vein catheter inserted under a brief period of halothane anaesthesia. The catheter is then removed, the jugular vein ligated and the skin incision closed. The ferrets recover rapidly from the anaesthetic and are mobile within 10-20 minutes. The animals are observed continuously during recovery from the anaesthetic and for 4 hours following the cisplatin injection, after which time the animals are killed humanely. The numbers of retches and vomits occurring during the 4 hours after cisplatin administration are recorded by trained observers.

Experiment [4] relates to women with premenstrual syndrome. Briefly: Double-blind, placebo-controlled study of mood and appetite disturbances associated with premenstrual syndrome. The format is in vivo. The settings on record: 30 mg/day, compared with placebo, Hamilton Depression Scale and PMS/LLPD Symptom Rating Scale. The protocol: Double-Blind, Placebo-Controlled Study to Determine the Effect of a Substance P Antagonist on Mood and Appetite Disturbances Associated with Premenstrual Syndrome in Women.
Approximately twenty women receive either the substance P receptor antagonist 2-(R)-(1-(R)-(3,5-bis(trifluoromethyl)phenyl)ethoxy)-3-(S)-(4-fluorophenyl)-4-(3-(5-oxo-1H,4H-1,2,4-triazolo)methyl-morpholine (30 mg/day) or a placebo starting approximately two weeks prior to their expected menstrual period. Each subject participates in 6 randomized test periods; in 3 of the test periods, each is given the substance P antagonist and in the other 3 test periods, is given a placebo. Mood is assessed 1-3 days before the onset of menses, using the Hamilton Depression Scale and the PMS/LLPD Symptom Rating Scale, for mood and appetite symptoms. Hamilton, N., Journal of Neurosurgery and Psychiatry, 23:56-62 (1960); Steiner, M. et al., Acta Psychiatrica Scandinavia, 62:177-190 (1980). Food intake is measured through the use of self-reports (when subjects were out-patients), and directly (while subjects were inpatients), during one drug and one placebo period; subjects also are weighed. The results between the test periods are compared and the results for each subject are evaluated.

For the compound `C[C@@H](O[C@H]1OCCN(Cc2n[nH]c(=O)[nH]2)[C@H]1c1ccc(F)cc1)c1cc(C(F)(F)F)cc(C(F)(F)F)c1` [2-(R)-(1-(R)-(3,5-bis(trifluoromethyl)-phenyl)-ethoxy)-3-(S)-(4-fluorophenyl)-4-(3-(5-oxo-1H,4H-1,2,4-triazolo)methyl)-morpholine], in experiment [1], the “guinea-pig vocalisation (4 hr. pre-treatment): ID50” value was “ID50 = 0.73 mg/kg p.o”. Also, in experiment [2] (5 mins.), the “gerbil foot-tapping (5 mins.): IC50” value is recorded as “IC50 = 0.36 mg/kg i.v”. Besides, the “gerbil foot-tapping (24 hrs.): IC50” value in experiment [2] (24 hrs.) was “IC50 = 0.33 mg/kg i.v”. The “ferret emesis: ID90” value in experiment [3] is “ID90 = <3 mg/kg p.o”. In addition, the “effect in decreasing depression and other negative mood states” value in experiment [4] is recorded as “positive effect with respect to placebo”.

For the origin of these results see US20020142942A1, “Method for treating premenstrual or late luteal phase syndrome” (Merck & Co. Inc., priority 1997, published 2002).
